Data reported in PMC11705217, “Substrate preference, RNA binding and active site versatility of Stenotrophomonas maltophilia nuclease SmNuc1, explained by a structural study” (The Febs Journal, 2024).

Biological target: T1, SmNuc1 (SmNuc1WT) (Stenotrophomonas maltophilia, UniProt B2FSF8)
T1 construct: gene Smlt3806; mature enzyme of 246 residues, 28 kDa, N-terminal Trp27 (native signal removed, expressed with MalE signal peptide), C-terminal His-tag kept, pET303/CT-His, E. coli Lemo21(DE3); three Zn2+ in active site
Experiment: in crystallo cleavage (crystal soak, […]), X-ray structure shows product […]'-GMP
Type: biochemical
Conditions: pH 6.5; only product 5'-GMP seen in structure 9EMG

## Nc1nc2c(ncn2[C@@H]2O[C@@H]3COP(=O)(O)O[C@H]4[C@@H](O)[C@H](n5cnc6c(=O)[nH]c(N)nc65)O[C@@H]4COP(=O)(O)O[C@H]3[C@H]2O)c(=O)[nH]1 [c‐di‐GMP]
  in crystallo cleavage (crystal soak, 5 mM), X-ray structure shows product 5'-GMP: c‐di‐GMP was soaked into a crystal of SmNuc1, resulting in the SmNuc1:GMP* structure
